Results taken from US20060019945A1, “Granzyme b inhibitors” (priority 2002, published 2006).
pKi: −log10 of the molar value.

Biological target: T1, human granzyme B (Homo sapiens, UniProt P10144)
T1 construct: the first amino acid of mature granzyme B; hexa-histidine tag (N, cleaved yes); Factor Xa recognition site Ile-Glu-Gly-Arg (N, cleaved yes); honeybee melittin secretion signal (N, cleaved yes); made in house; host or cells: Sf9 insect cells (baculovirus, Bac-to-Bac)
Test: Fluorogenic assay for granzyme B (Ac-IEPD-AMC substrate)
Format: biochemical
Settings: recombinant granzyme B, substrate Ac-IEPD-AMC 10 μM, pH 7.5, 25° C.; read-out: Gzm B Ki
Description: Plasmids pMelBac and the TA Cloning Kit (pCR2.1) were purchased from Invitrogen (Carlsbad, Calif.). The Bac-to-Bac Baculovirus Expression System and all cell culture supplies were from Life Technologies (Gaithersburg, Md.). The human granzyme B protease has been identified and is known in the art. See, for example, Poe, et al., J. Biol. Chem. 266, 98-103. A vector was generated for secreted protein expression in the Bac-to-Bac system. The honeybee melittin secretion signal was amplified from pMelBac by PCR with primers 5′-GTGT AGATCTATGAAATTCTTAGTCAACG-3′ and 5′-TTCAGCAGAGTCGACTCCAAG-3′. The amplified product contained a BglII site upstream of the melittin secretion signal and spanned the multiple cloning site of the vector. The fragment was digested with BglII and EcoRI and subcloned into BamHI and EcoRI digested pFastBac. The resulting vector was designated pSecBac. Activatable tagged human granzyme B was cloned into pSecBac in two sequential steps. Firstly, mature granzyme B was amplified by PCR with primers 5′-GGATCC ATC GAA GGT CGT ATC ATC GGAGGACATGAGGCC-3′ and 5′-AAGCTTTTAGTAGCGCTTCATGGTCTTCTTTATCC-3′ and cloned into pCR2.1. In the sense primer, the bold type sequence coding for the Factor Xa recognition site, Ile-Glu-Gly-Arg, was inserted upstream of isoleucine 21 (referred to as ILE 16 in this paper using the numbering scheme for this family of serine proteases is traditionally based on the zymogen, chymotrypsinogen), the first amino acid of mature granzyme B. Secondly, hexa-histidine tagged, activatable granzyme B was amplified from the granzyme B/pCR2.1 clone by PCR using primers 5′-GGAAGATCTCATCATCATCATCATCATGGATCCATCGAAGGTCGTATC-3′ and 5′-CCT GAA TTC TTA GTA GCG TIT CAT GGT CTT CTT TAT CC-3′. The amplified product contained a Bali site upstream of the hex-histidine tag and contained the Factor Xa recognition sequence. This fragment was digested with Bali and ECOR and subcloned into BamHI and EcoRI digested pSecBac. The completed vector generated a recombinant baculovirus in Gibco BRL's Bac-to-Bac system, which would produce a secreted, 6-histidine tagged granzyme B. For protein expression, sf9 cells were grown to a density of 1.5×10^6 cells ml^−1 in Grace's medium (Cat. 11605-094) supplemented with 10% fetal calf serum and penicillin-streptomycin-glutamine (Cat. 10378-024). Prior to the addition of virus, cells were centrifuged at 1000×g for 15 minutes and resuspended to the same density in fresh growth medium containing recombinant viral stock and SP Sepharose beads (4 ml resin per liter of culture). After 72 hours of induction at 27° C., the resin was collected in a 50 micron Nylon mesh (PGC Scientifics), extensively washed with 50 mM Mes.NaOH, 0.3 M Na Cl, pH 6.6 and poured onto a column. The protein was eluted using a linear gradient (0.3 to 1.0 M) of NaCl. Fractions containing granzyme B activity were identified, combined and concentrated and then diluted in 20 mM Tris.HCl, pH 8.0. The sample was readjusted to a final pH 8.0, CaCl2 (3 mM final concentration) and factor Xa (Pharmacia, 10 units per mg of protein) were added, and incubated for 18 hours at room temperature to generate active granzyme B. Under these conditions, complete cleavage is achieved. The recombinant granzyme B was purified from the cleavage mixture using a 1 ml HiTrap SP column (Pharmacia). The yield can be as much as 4-5 mg of purified granzyme B per liter of culture. Mass spectral analysis identifies one major peak at 27,466 Da (other components of 27,320 Da and 26,630 Da were also consistently observed). Since the combined mass of the 227-amino acids defined by sequence analysis only accounts for 25,511.58 Da, we concluded that preparations of recombinant granzyme B purified with this method are more homogenous and less glycosylated than preparations of native granzyme B purified from NK cell granules. […]

T1 sequence (P10144 21-247): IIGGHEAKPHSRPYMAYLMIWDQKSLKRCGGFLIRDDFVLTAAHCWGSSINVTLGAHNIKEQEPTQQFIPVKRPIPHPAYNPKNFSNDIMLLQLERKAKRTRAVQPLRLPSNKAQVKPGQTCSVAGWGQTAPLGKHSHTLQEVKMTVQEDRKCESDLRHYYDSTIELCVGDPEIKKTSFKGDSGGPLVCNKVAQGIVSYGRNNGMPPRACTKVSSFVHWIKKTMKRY

Row | SMILES | pKi
1 | CC(=O)N[C@H](C(=O)N[C@H]1CCc2cccc3c2N(C1=O)[C@H](C(=O)NCc1c[nH]nn1)C3)C1CC1 [Example 32] | 5.99
2 | CC[C@H](C)[C@@H](C(=O)N[C@H]1CCc2cccc3c2N(C1=O)[C@H](C(=O)NCc1c[nH]nn1)C3)N1CCCC1=O [Example 30] | 6.95
3 | O=C(CC1CCCC1)N[C@H]1CCc2cccc3c2N(C1=O)[C@H](C(=O)NCc1c[nH]nn1)C3 [Example 31] | 5.73
4 | CC(=O)N[C@H](C(=O)N[C@H]1CCc2cccc3c2N(C1=O)[C@H](C(=O)NCc1c[nH]nn1)C3)C1CCCC1 [Example 33] | 7.15
5 | CC[C@H](C)[C@H](NC(=O)CN(C)C)C(=O)N[C@H]1CCc2cccc3c2N(C1=O)[C@H](C(=O)NCc1nn[nH]n1)C3 [Example 25] | 6.69
6 | CC(=O)N1CSC(C)(C)[C@H]1C(=O)N[C@H]1CCc2cccc3c2N(C1=O)[C@H](C(=O)NCc1c[nH]nn1)C3 [Example 29] | 5.41
7 | CC[C@H](C)[C@H](NC(=O)Cc1csc2ccccc12)C(=O)N[C@H]1CCc2cccc3c2N(C1=O)[C@H](C(=O)NCc1c[nH]nn1)C3 [Example 28] | 8.15
8 | CC[C@H](C)[C@H](NC(C)=O)C(=O)N[C@H]1CCc2cccc3c2N(C1=O)[C@H](C(=O)NCc1cn2cccnc2n1)C3 [Example 19] | 6.10
9 | CC[C@H](C)[C@H](NC(=O)CN(C)C)C(=O)N[C@H]1CCc2cccc3c2N(C1=O)[C@H](C(=O)NCc1c[nH]nn1)C3 [Example 27] | 7.35
10 | CC[C@H](C)[C@H](NC(=O)Cc1ccccc1)C(=O)N[C@H]1CCc2cccc3c2N(C1=O)[C@H](C(=O)NCc1c[nH]nn1)C3 [Example 4, (2S,5S)-4-oxo-5-{[N-(phenylacetyl)-L-isoleucyl]amino}-N-(1H-1,2,3-triazol-4-ylmethyl)-1,2,4,5,6,7-hexahydroazepino[3,2,1-hi]indole-2-carboxamide] | 7.89
11 | CC[C@H](C)[C@H](NC(C)=O)C(=O)N[C@H]1CCc2cccc3c2N(C1=O)[C@H](C(=O)NCc1nn[nH]n1)C3 [Example 1, (2S,5S)-5-[(N-acetyl-L-isoleucyl)amino]-4-oxo-N-(1H-tetraazol-5-ylmethyl)-1,2,4,5,6,7-hexahydroazepino[3,2,1-hi]indole-2-carboxamide] | 7.13
12 | CC[C@H](C)[C@H](NC(=O)Cc1csc2ccccc12)C(=O)N[C@H]1CCc2cccc3c2N(C1=O)[C@H](C(=O)NCc1nn[nH]n1)C3 [Example 26] | 7.77
13 | CC[C@H](C)[C@H](NC(C)=O)C(=O)N[C@H]1CCc2cccc3c2N(C1=O)[C@H](C(=O)NCc1c[nH]nn1)C3 [Example 2, (2S,5S)-5-[(N-acetyl-L-isoleucyl)amino]-4-oxo-N-(1H-1,2,3-triazol-4-ylmethyl)-1,2,4,5,6,7-hexahydroazepino[3,2,1-hi]indole-2-carboxamide] | 7.42
14 | CC(C)[C@@H](C(=O)N[C@H]1CCc2cccc3c2N(C1=O)[C@H](C(=O)NCc1nn[nH]n1)C3)c1ccccn1 [Example 21] | 6.39
15 | CC[C@H](C)[C@H](NC(=O)Cc1cccc(F)c1F)C(=O)N[C@H]1CCc2cccc3c2N(C1=O)[C@H](C(=O)NCc1nn[nH]n1)C3 [Example 24] | 7.44
